Measured values published in patent US20230201232A1, “COMPOSITION FOR AMELIORATION, PREVENTION OR TREATMENT OF HAIR LOSS, COMPRISING CATECHIN 7-O-beta-D-APIOFURANOSIDE AS ACTIVE INGREDIENT” (ANPOLY INC., priority 2020, published 2023).

Key:
[1] = test system: dermal papilla cells (HFDPC); settings: H2O2 at 600 µM
[2] = test system: PARP-1; assay: Western blot, PARP-1 protein expression in H2O2-treated dermal papilla cells; format: cell-based, human; settings: HFDPC, 600 µM H2O2, compound at each concentration; FIG. 4
Method: (§1) HFDPC cells were inoculated in a papilla cell-specific medium (PromoCell, Heidelberg, Germany or Cell biologics Inc, IL, USA) recommended by the supplier, subcultured for 24 to 48 hours at 37° C. and 5% CO2 conditions, and used for experiments.
(§2) After treating the dermal papilla cells (HFDPC) with H2O2 and the sample, the cells were collected at each time zone and the cells were lysed in a cell lysis buffer (RIPA buffer). After the sample was centrifuged at 13,000 g for about 10 to 15 minutes, only the supernatant was taken. The protein concentration of the supernatant was measured by a BCA protein assay kit (Bio-Rad, CA, USA) and then heated at 95° C. for 10 minutes. The prepared sample was electrophoresed on SDS-polyacrylamide gel, transferred to a polyvinylidenedifluoride membrane (PVDF, Bio-rad, CA, USA), blocked with 5% BSA, and reacted with the indicated specific antibody. Then, HRP-conjugated secondary antibody (Santacruz, CA, USA) was reacted with the sample and detected by ECL system (Bio-Rad, MO, USA). As primary antibodies against Bax-1, Bcl-2, PARP-1, and β-actin, Santacruz antibodies (CA, USA) were used.

[3] = test system: IGF-1; assay: ELISA, IGF-1 expression in H2O2-treated dermal papilla cells; format: cell-based, human; settings: FIG. 5A
Method: as §1
(§3) An ELISA kit was purchased and used to perform immunochemical quantitative analysis related to hair growth promotion and hair loss inhibition. TGF-β and IGF-1 kits were purchased from R&D systems (CA, USA) and used. The test was conducted using each kit according to the supplier’s manual, and the result was derived by converting the amount (pg or µg) of antigen per volume (ml) of cell lysate into a concentration unit.

[4] = test system: production of dihydrotestosterone (DHT) from testosterone in dermal papilla cells (HFDPC); assay: Dihydrotestosterone production inhibitory activity assay (DHT ELISA); format: cell-based, human; settings: HFDPC treated with 20 nM testosterone; compound at 125 µg/ml, 150 µg/ml, 1100 µg/ml; FIG. 3
Method: as §1
Quantitative analysis of dihydrotestosterone (DHT) was performed by immunochemical quantitative analysis using an ELISA kit. A DHT assay ELISA kit was purchased from Alpco (NH, USA) and used. The experiment using the kit was performed according to the instructions provided by the manufacturer, and the result was derived by converting the amount of antigen (pg/µg) per volume (ml) of cell lysate into a concentration unit.

[5] = test system: Bax; assay: Western blot, Bax protein expression in H2O2-treated dermal papilla cells; format: cell-based, human; settings: HFDPC, 600 µM H2O2, pretreatment with compound at each concentration; FIG. 4
Method: as §1, §2

[6] = test system: TGF-β1; assay: ELISA, TGF-β1 expression in H2O2-treated dermal papilla cells; format: cell-based, human; settings: FIG. 5B
Method: as §1, §3

[7] = test system: Bcl-2; assay: Western blot, Bcl-2 protein expression in H2O2-treated dermal papilla cells; format: cell-based, human; settings: HFDPC, 600 µM H2O2, compound at each concentration; FIG. 4
Method: as §1, §2

SMILES	apoptosis [1] [%]	protein expression level of PARP-1 [2]	expression of IGF-1 [3]	inhibition of DHT production [4]	expression of Bax [5]	expression of TGF-β1 [6]	expression of Bcl-2 [7]
OO [Hydrogen peroxide (H2O2), Hydrogen peroxide]	50						
OC[C@@]1(O)COC(Oc2cc(O)c3c(c2)O[C@H](c2ccc(O)c(O)c2)[C@@H](O)C3)[C@@H]1O (stereo in doubt) [catechin 7-O-β-D-apiofuranoside]		significantly inhibited the protein expression level of PARP-1 in a concentration-dependent manner	promote the expression of IGF conducive to hair growth in a concentration-dependent manner	effect of inhibiting DHT production was statistically significant in a concentration-dependent manner	expression of Bax was significantly reduced in a concentration-dependent manner	inhibit the expression of TGF-β1 in a concentration-dependent manner	significantly increased the expression of Bcl-2 in a concentration-dependent manner
